Source: the NIST ThermoML archive (doi:10.1016/j.jct.2004.06.004)

Tests used:
[1] = Liquid
[2] = xn = mol fraction of the nth substance listed; conditions: 101.3 kPa, Liquid

NCCO [2-aminoethan-1-ol]
Conditions	mass density [kg/m3]
[1], 293.15 K, 101.33 kPa, Pycnometric method	1012.1

[1], 101.3 kPa
Conditions	viscosity [mPa·s]
298.15 K	18.91
303.15 K	14.71
308.15 K	11.82
313.15 K	9.27
318.15 K	7.52
323.15 K	6.21

NCCO [2-aminoethan-1-ol] + O
viscosity [mPa·s], [2]
Conditions	x1 = 0.03219	x1 = 0.06969	x1 = 0.1138	x1 = 0.1666	x1 = 0.2306	x1 = 0.3102	x1 = 0.4116	x1 = 0.5452	x1 = 0.7296	x1 = 1
303.15 K	1.081	1.448	2.041	2.93	4.28	6.27	9.25	12.42	14.56	14.71
308.15 K	0.962	1.282	1.784	2.513	3.61	5.23	7.3	9.75	11.62	11.82
313.15 K	0.865	1.149	1.536	2.085	2.932	4.23	5.88	7.82	9.26	9.27
318.15 K	0.779	1.01	1.345	1.786	2.472	3.51	4.92	6.53	7.57	7.52
323.15 K	0.703	0.907	1.173	1.553	2.125	2.925	3.95	5.24	6.06	6.21

CCOCCO [2-ethoxyethan-1-ol]
[1]
Conditions	mass density, 293.15 K [kg/m3]	viscosity, 293.15 K [mPa·s]	viscosity, 303.15 K [mPa·s]	viscosity, 308.15 K [mPa·s]	viscosity, 313.15 K [mPa·s]	viscosity, 318.15 K [mPa·s]	viscosity, 323.15 K [mPa·s]
101.3 kPa	–	2.077	1.612	1.413	1.24	1.166	1.026
101.33 kPa	929.7	–	–	–	–	–	–

CCOCCO [2-ethoxyethan-1-ol] + O
viscosity [mPa·s], [2]
Conditions	x1 = 0.0201	x1 = 0.04419	x1 = 0.07339	x1 = 0.1098	x1 = 0.1561	x1 = 0.2172	x1 = 0.3015	x1 = 0.4252	x1 = 0.6247	x1 = 1
303.15 K	1.046	1.384	1.709	2.135	2.516	2.711	2.858	2.747	2.266	1.612
308.15 K	0.924	1.177	1.472	1.769	2.057	2.248	2.329	2.2	1.951	1.413
313.15 K	0.814	1.008	1.238	1.499	1.711	1.864	1.947	1.867	1.676	1.24
318.15 K	0.71	0.898	1.108	1.322	1.521	1.663	1.723	1.632	1.516	1.166
323.15 K	0.651	0.791	0.958	1.164	1.339	1.45	1.55	1.486	1.361	1.026

COCCO [2-methoxyethan-1-ol]
[1]
Conditions	mass density, 293.15 K [kg/m3]	viscosity, 293.15 K [mPa·s]	viscosity, 303.15 K [mPa·s]	viscosity, 308.15 K [mPa·s]	viscosity, 313.15 K [mPa·s]	viscosity, 318.15 K [mPa·s]	viscosity, 323.15 K [mPa·s]
101.3 kPa	–	1.991	1.375	1.126	0.942	0.832	0.757
101.33 kPa	965.2	–	–	–	–	–	–

Conditions	viscosity [mPa·s]
[1], 293.15 K, 101.33 kPa, Capillary tube (Ostwald / Ubbelohde) method	1.991

COCCO [2-methoxyethan-1-ol] + O
viscosity [mPa·s], [2]
Conditions	x1 = 0.0247	x1 = 0.05399	x1 = 0.08909	x1 = 0.1321	x1 = 0.1858	x1 = 0.2551	x1 = 0.3475	x1 = 0.4773	x1 = 0.6726	x1 = 1
303.15 K	1.08	1.353	1.656	1.979	2.247	2.396	2.418	2.296	1.825	1.375
308.15 K	0.953	1.165	1.459	1.652	1.888	2.016	2.051	1.941	1.528	1.126
313.15 K	0.811	0.985	1.205	1.367	1.529	1.668	1.733	1.6	1.323	0.942
318.15 K	0.735	0.885	1.031	1.176	1.368	1.457	1.53	1.41	1.133	0.832
323.15 K	0.667	0.796	0.926	1.056	1.226	1.322	1.381	1.258	1.05	0.757

O [water] + CCOCCO
[2], x2 = 0
Conditions	viscosity [mPa·s]
303.15 K	0.7975
308.15 K	0.7195
313.15 K	0.6532
318.15 K	0.5963
323.15 K	0.5471

O [water] + COCCO
[2], x2 = 0
Conditions	viscosity [mPa·s]
303.15 K	0.7975
308.15 K	0.7195
313.15 K	0.6532
318.15 K	0.5963
323.15 K	0.5471

O [water] + NCCO
[2], x2 = 0
Conditions	viscosity [mPa·s]
303.15 K	0.7975
308.15 K	0.7195
313.15 K	0.6532
318.15 K	0.5963
323.15 K	0.5471
